The assay deals with T1, Human complement C1s enzyme (Homo sapiens, UniProt P09871).
T1 construct: purified from human serum, Complement Technology, Inc; purchased Complement Technology, Inc; host or cells: human serum (plasma-derived native protein)
T1 sequence (P09871 438-688 limits assumed): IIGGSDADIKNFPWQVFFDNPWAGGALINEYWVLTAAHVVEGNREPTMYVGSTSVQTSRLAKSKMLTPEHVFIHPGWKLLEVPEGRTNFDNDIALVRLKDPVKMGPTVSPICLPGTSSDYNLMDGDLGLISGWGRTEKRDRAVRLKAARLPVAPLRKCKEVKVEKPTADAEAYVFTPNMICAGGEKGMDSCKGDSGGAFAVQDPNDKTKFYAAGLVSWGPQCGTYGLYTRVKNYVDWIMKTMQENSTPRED
T1 sequence (P09871 16-437 partner limits assumed): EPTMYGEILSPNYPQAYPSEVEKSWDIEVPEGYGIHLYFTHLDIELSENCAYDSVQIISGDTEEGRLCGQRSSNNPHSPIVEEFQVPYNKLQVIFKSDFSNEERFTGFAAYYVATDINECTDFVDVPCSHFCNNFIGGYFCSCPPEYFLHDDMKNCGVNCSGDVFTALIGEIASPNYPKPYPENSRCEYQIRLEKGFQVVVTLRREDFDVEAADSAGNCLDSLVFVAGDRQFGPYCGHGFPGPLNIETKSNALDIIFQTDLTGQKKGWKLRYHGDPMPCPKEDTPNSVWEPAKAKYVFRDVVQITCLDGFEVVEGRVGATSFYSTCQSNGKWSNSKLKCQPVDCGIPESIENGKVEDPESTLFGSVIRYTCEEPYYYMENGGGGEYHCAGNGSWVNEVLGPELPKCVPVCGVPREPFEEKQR
Nature of the assay: Human C1s enzyme assay. Format: biochemical. To be noted: human complement C1s enzyme 1.16 nM, substrate Z-L-Lys-SBzl, A405; read-out: IC50 (Stars). In short, it runs like this:
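Thioesterase activity followed colorimetrically (DTNB, A405, 30-s reads) using 100 μM Z-L-Lys-SBzl substrate. Enzyme, human serum-derived C1s at 1.16 nM final, was incubated with test compound for 5 min, room temperature, pH 7.5 Tris buffer with 1 M NaCl. Rate-versus-concentration data fitted by nonlinear regression for IC50.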

These results are taken from patent US20260184707A1, “PHARMACEUTICAL COMPOUNDS FOR THE TREATMENT OF COMPLEMENT MEDIATED DISORDERS” (ALEXION PHARMACEUTICALS, INC., priority 2022, published 2026).

For the compound `Cc1ncc(N[C@H](C)c2ccc3oc4ccccc4c3c2)c(=O)n1C(C)C(=O)NCc1cc2cnccc2[nH]1` (stereo partly drawn) [Compound 404, N-((1H-pyrrolo[3,2-c]pyridin-2-yl)methyl)-2-(5-(((R)-1-(dibenzo[b,d]furan-2-yl)ethyl)-amino)-2-methyl-6-oxopyrimi-din-1(6H)-yl)propanamide], the IC50 (commonly the point on the concentration scale where inhibition reaches its midpoint) was over 1000 nM. The same measure for `O=C(Cn1cncc(NC(=O)c2cnc(-c3ccccc3)o2)c1=O)NCc1cc2cnccc2[nH]1` [Compound 405, N-(1-(2-(((1H-pyrrolo[3,2-c]pyridin-2-yl)methyl)amino)-2-oxoethyl)-6-oxo-1,6-dihydro-pyrimidin-5-yl)-2-phenyl-oxazole-5-carboxamide]: under 100 nM; for `Cc1ncc(NC(=O)c2csc(-c3ccccc3)n2)c(=O)n1CC(=O)NCc1cc2cnccc2[nH]1` [Compound 406, N-(1-(2-(((1H-pyrrolo[3,2-c]pyridine-2-yl)methyl)amino)-2-oxoethyl)-2-methyl-6-oxo-1,6-dihydropyrimidin-5-yl)-2-phenylthiazole-4-carboxamide]: 100 to 1000 nM.

Consider `C[C@@H](Nc1ncc(N2CCOCC2)n(CC(=O)NCc2cc3cnccc3[nH]2)c1=O)c1ccc2oc3ccccc3c2c1` [Compound 407, (R)—N-((1H-pyrrolo[3,2-c]pyridine-2-yl)methyl)-2-(3-((1-(dibenzo[b,d]furan-2-yl)ethyl)amino)-6-morpholino-2-oxopyrazin-1(2H)-yl)acetamide], for which the half-inhibitory concentration (IC50) is under 100 nM.

Consider `O=C(Cn1c(N2CCOCC2)ncc(NC(=O)c2cnc(-c3ccccc3)o2)c1=O)NCc1cc2cnccc2[nH]1` [Compound 408, N-(1-(2-(((1H-pyrrolo[3,2-c]pyridine-2-yl)methyl)amino)-2-oxoethyl)-2-morpholino-6-oxo-1,6-dihydropyrimidin-5-yl)-2-phenyloxazole-5-carboxamide], for which the half-maximal inhibitory concentration (IC50) was under 100 nM.

As to `O=C(Cn1c(N2CCOCC2)ncc(NC(=O)CCc2ccccc2)c1=O)NCc1cc2cnccc2[nH]1` [Compound 409, N-(1-(2-(((1H-pyrrolo[3,2-c]pyridin-2-yl)methyl)amino)-2-oxoethyl)-2-morpholino-6-oxo-1,6-dihydropyrimidin-5-yl)-3-phenylpropanamide], the IC50 was under 100 nM. With `O=C(Cn1c(N2CCOCC2)ncc(NC(=O)c2ccc(Oc3ccccc3)cc2)c1=O)NCc1cc2cnccc2[nH]1` [Compound 410, N-(1-(2-(((1H-pyrrolo[3,2-c]pyridin-2-yl)methyl)amino)-2-oxoethyl)-2-morpholino-6-oxo-1,6-dihydropyrimidin-5-yl)-4-phenoxybenzamide] the figure was under 100 nM; with `O=C(Cn1c(N2CCOCC2)ncc(NC(=O)c2csc(-c3ccccc3)n2)c1=O)NCc1cc2cnccc2[nH]1` [Compound 411, N-(1-(2-(((1H-pyrrolo[3,2-c]pyridin-2-yl)methyl)amino)-2-oxoethyl)-2-morpholino-6-oxo-1,6-dihydropyrimidin-5-yl)-2-phenylthiazole-4-carbox-amide], under 100 nM; with `O=C(Cn1c(N2CCOCC2)ncc(NCCCc2ccccc2)c1=O)NCc1cc2cnccc2[nH]1` [Compound 412, N-((1H-pyrrolo[3,2-c]pyridine-2-yl)methyl)-2-(2-morpholino-6-oxo-5-((3-phenylpropyl)amino)pyrimidin-1(6H)-yl)acetamide], under 100 nM. As for `O=C(Cn1c(N2CCOCC2)ncc(NC(=O)c2coc(-c3ccccc3)n2)c1=O)NCc1cc2cnccc2[nH]1` [Compound 413, N-(1-(2-(((1H-pyrrolo[3,2-c]pyridin-2-yl)methyl)amino)-2-oxoethyl)-2-morpholino-6-oxo-1,6-dihydropyrimidin-5-yl)-2-phenyloxazole-4-carbox-amide], the IC50 was under 100 nM. For `Cc1ncc(NC(=O)c2coc(-c3ccccc3)n2)c(=O)n1CC(=O)NCc1cc2cnccc2[nH]1` [Compound 414, N-(1-(2-(((1H-pyrrolo[3,2-c]pyridine-2-yl)methyl)amino)-2-oxoethyl)-2-methyl-6-oxo-1,6-dihydropyrimidin-5-yl)-2-phenyloxazole-4-carboxamide], the IC50 is under 100 nM.

With `C[C@@H](Nc1ncc(N2CCCCC2)n(CC(=O)NCc2cc3cnccc3[nH]2)c1=O)c1ccc2oc3ccccc3c2c1` [Compound 415, (R)-N-((1H-pyrrolo[3,2-c]pyridin-2-yl)methyl)-2-(3-((1-(dibenzo[b,d]furan-2-yl)ethyl)-amino)-2-oxo-6-(piperidin-1-yl)pyrazin-1(2H)-yl)acetamide], the IC50 is under 100 nM.

Regarding `C[C@@H](Nc1cnc(N2CCCCC2)n(CC(=O)NCc2cc3cnccc3[nH]2)c1=O)c1ccc(-c2ccccc2F)cc1` [Compound 416, (R)-N-((1H-pyrrolo[3,2-c]pyridin-2-yl)methyl)-2-(5-((1-(2′-fluoro-[1,1′-biphenyl]-4-yl)ethyl)amino)-6-oxo-2-(piperidin-1-yl)pyrimidin-1(6H)-yl)acetamide], the IC50 is under 100 nM. For `C[C@@H](Nc1ncc(N2CCOCC2)n(CC(=O)NCc2cc3cnccc3[nH]2)c1=O)c1ccc(-c2ccccc2F)cc1` [Compound 417, (R)-N-((1H-pyrrolo[3,2-c]pyridin-2-yl)methyl)-2-(3-((1-(2′-fluoro-[1,1′-biphenyl]-4-yl)ethyl)amino)-6-morpholino-2-oxopyrazin-1(2H)-yl)acet-amide], the IC50 is under 100 nM.

On to `C[C@@H](Nc1ncc(-c2ccccc2F)n(CC(=O)NCc2cc3cnccc3[nH]2)c1=O)c1ccc(-c2ccccc2F)cc1` [Compound 418, (R)—N-((1H-Pyrrolo[3,2-c]pyridine-2-yl)methyl)-2-(3-((1-(2′-fluoro-[1,1′-biphenyl]-4-yl)ethyl)amino)-6-(2-fluorophenyl)-2-oxopyrazin-1(2H)-yl)acetamide], for which the IC50 was under 100 nM.

For `C[C@@H](Nc1ncc(C2CCCC2)n(CC(=O)NCc2cc3cnccc3[nH]2)c1=O)c1ccc2oc3ccccc3c2c1` [Compound 420, (R)-N-((1H-pyrrolo[3,2-c]pyridin-2-yl)methyl)-2-(6-cyclopentyl-3-((1-(dibenzo [b,d]furan-2-yl)ethyl)amino)-2-oxopyrazin-1(2H)-yl)acet-amide], the IC50 was under 100 nM. For the compound `C[C@@H](Nc1cnc(N2CCOCC2)n(CC(=O)NCc2cc3cnccc3[nH]2)c1=O)c1ccc(-c2ccccc2F)cc1` [Compound 421, (R)-N-((1H-pyrrolo[3,2-c]pyridin-2-yl)methyl)-2-(5-((1-(2′-fluoro-[1,1′-biphenyl]-4-yl)-ethyl)amino)-2-morpholino-6-oxopyrimidin-1(6H)-yl)acet-amide], the IC50 was under 100 nM. Consider `C[C@@H](Nc1cnc(N2CCCC2)n(CC(=O)NCc2cc3cnccc3[nH]2)c1=O)c1ccc(-c2ccccc2F)cc1` [Compound 422, (R)-N-((1H-pyrrolo[3,2-c]pyridin-2-yl)methyl)-2-(5-((1-(2′-fluoro-[1,1′-biphenyl]-4-yl)ethyl)amino)-6-oxo-2-(pyr-rolidin-1-yl)pyrimidin-1(6H)-yl)acetamide], for which the IC50 is under 100 nM. Consider `C[C@@H](Nc1ncc(N2CCCCC2)n(CC(=O)NCc2cc3cnccc3[nH]2)c1=O)c1ccc(-c2ccccc2F)cc1` [Compound 423, (R)-N-((1H-pyrrolo[3,2-c]pyridin-2-yl)methyl)-2-(3-((1-(2′-fluoro-[1,1′-biphenyl]-4-yl)ethyl)amino)-2-oxo-6-(piperidin-1-yl)pyrazin-1(2H)-yl)acetamide], for which the IC50 was under 100 nM. With `C[C@@H](Nc1ncc(N2CCCC(O)C2)n(CC(=O)NCc2cc3cnccc3[nH]2)c1=O)c1ccc2oc3ccccc3c2c1` (stereo partly drawn) [Compound 424, N-((1H-pyrrolo[3,2-c]pyridin-2-yl)methyl)-2-(3-(((R)-1-(dibenzo[b,d]furan-2-yl)ethyl)-amino)-6-(3-hydroxypiperidin-1-yl)-2-oxopyrazin-1(2H)-yl)-acetamide] the figure was under 100 nM.

For `C[C@@H](Nc1cnc(-c2ccccc2)n(CC(=O)NCc2cc(Cl)ccc2-n2cnnn2)c1=O)c1ccc2oc3ccccc3c2c1` [Compound 425, (R)-N-(5-chloro-2-(1H-tetra-zol-1-yl)benzyl)-2-(5-((1-(dibenzo[b,d]furan-2-yl)ethyl)-amino)-6-oxo-2-phenylpyrimi-din-1(6H)-yl)acetamide], the IC50 is over 1000 nM. With `C[C@@H](Nc1ncc(C2=CCOCC2)n(CC(=O)NCc2cc3cnccc3[nH]2)c1=O)c1ccc2oc3ccccc3c2c1` [Compound 426, (R)—N-((1H-Pyrrolo[3,2-c]pyridine-2-yl)methyl)-2-(3-((1-(dibenzo[b,d]furan-2-yl)ethyl)amino)-6-(3,6-dihydro-2H-pyran-4-yl)-2-oxopyrazin-1(2H)-yl)acetamide] the figure was under 100 nM; with `C[C@@H](Nc1ncc(C2=CCCCC2)n(CC(=O)NCc2cc3cnccc3[nH]2)c1=O)c1ccc2oc3ccccc3c2c1` [Compound 427, (R)-N-((1H-pyrrolo[3,2-c]pyridin-2-yl)methyl)-2-(6-(cyclohex-1-en-1-yl)-3-((1-(dibenzo[b,d]furan-2-yl)ethyl)-amino)-2-oxopyrazin-1(2H)-yl)acetamide], under 100 nM.
